From patent US8546608B2, “Proteasome inhibitors and methods of using the same” (Cephalon, Inc., priority 2003, dated 2013)
Like-named read-outs stand apart in the source and are kept apart here.

Columns and labels:
[1] = biological target: T1, 20S Human Erythrocyte Proteasome (HEP) (Homo sapiens, UniProt P20618+P28074); experiment: Chymotrypsin-like activity of 20S Human Erythrocyte Proteasome (HEP), IC50 determination; assay type: biochemical; conditions: assay of Example C, inhibition of HEP
T1 construct: 20S Human Erythrocyte Proteasome (HEP), purchased from Immatics Biotechnologies Inc; purchased Immatics Biotechnologies Inc., Tübingen, Germany; host or cells: human erythrocytes (natural source)
Outline: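 20S proteasome at 0.2 μg/mL (about 0.6 nM catalytic sites) in 20 mM Tris with 0.04% SDS, preincubated 15 min at 37° C with inhibitor before Suc-LLVY-AMC (100 μM final). AMC fluorescence read in the linear range; triplicates, IC50 from concentration series.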

[2] = biological target: T2, proteasome in Molt-4 cells (human leukemia) (Homo sapiens, UniProt P20618+P28074); assay type: cell-based
T2 sequence (P28074 60-263): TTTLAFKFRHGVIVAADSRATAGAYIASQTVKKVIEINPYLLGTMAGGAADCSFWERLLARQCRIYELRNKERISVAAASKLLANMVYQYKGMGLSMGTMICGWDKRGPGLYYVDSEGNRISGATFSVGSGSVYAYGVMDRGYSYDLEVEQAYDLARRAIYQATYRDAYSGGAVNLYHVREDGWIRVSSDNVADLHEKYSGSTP
T2 sequence (P20618 29-241): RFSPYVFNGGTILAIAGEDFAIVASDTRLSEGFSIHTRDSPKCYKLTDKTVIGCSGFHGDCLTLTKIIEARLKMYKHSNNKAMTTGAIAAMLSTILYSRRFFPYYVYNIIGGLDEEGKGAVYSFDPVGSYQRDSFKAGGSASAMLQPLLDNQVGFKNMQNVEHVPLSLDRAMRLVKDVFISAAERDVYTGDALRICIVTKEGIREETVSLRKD
Outline: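 Intact Molt-4 cells (6×10^6 cells/mL) in HEPES-buffered saline were preincubated with inhibitor 15 min at 37 °C, then given cell-permeable MeOSuc-FLF-AFC at 25 μM final.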

[3] = assay of Example E, inhibition of MOLT4; read-out: MOLT4 (EC50)

Row | SMILES | melting point [°C] | IC50 [1] [nM] | EC50 [2, 3] [nM] | EC50 ([2]; read-out: MOLT4 (EC50); assay of Example E, inhibition of MOLT4) [nM]
1 | CCCCc1ccc(C(=O)N[C@@H](CNC(C)=O)C(=O)N[C@@H](CC(C)C)B(O)O)cc1 [E.5.8] | 107 to 109 | < 10 | < 200 | –
2 | CCCCc1ccc(C(=O)N[C@@H](CNC(=O)c2ccc(-c3ccccc3)cc2)C(=O)N[C@@H](CC(C)C)B(O)O)cc1 [E.5.33, Boronic acid, [(1R)-1-[[(2S)-3-(4-phenybenzamide]-2-[(4-butylbenzoyl)amino]-1-oxopropyl]amino]-3-methylbutyl]] | 178 to 180 | < 10 | 200 to 2000 | –
3 | CCCCc1ccc(C(=O)N[C@@H](CNC(C)=O)C(=O)N[C@@H](CC(C)C)B2O[C@@H]3C[C@@H]4C[C@@H](C4(C)C)[C@]3(C)O2)cc1 [D.24.3, 4-butylbenzamide, N-[(1S)-1-[[[(1R)-1-[(3aS,aS,6S,7aR)-hexahydro-3a,5,5-trimethyl-4,6-methano-1,3,2-benzodioxaborol-2-yl-]-3-methylbutyl]amino]carbonyl]-2-(acetamido)ethyl]-] | 133 to 135 | < 10 | < 200 | –
4 | CCCCc1ccc(C(=O)N[C@@H](CNC(=O)c2cccn2C)C(=O)N[C@@H](CC(C)C)B(O)O)cc1 [E.5.16, Boronic acid, [(1R)-1-[[(2S)-3-[1-N-methyl-2-pyrrolylcarbonylamino]-2-[(4-butylbenzoyl)amino]-1-oxopropyl]amino]-3-methylbutyl]] | 130 to 135 | < 10 | < 200 | –
5 | CCCCc1ccc(C(=O)N[C@@H](CNS(=O)(=O)c2ccc(N3CCOCC3)nc2)C(=O)N[C@@H](CC(C)C)B(O)O)cc1.Cl [E.5.27, Boronic acid, [(1R)-1-[[(2S)-3-[6-morpholin-4-yl-pyridine-3-sulfamoyl]-2-[(4-butylbenzoyl)amino]-1-oxopropyl]amino]-3-methylbutyl] hydrochloride] | 182 to 184 | < 10 | – | < 200
6 | CCCCCCCCCC(=O)N[C@@H](CNC(=O)c1cccnc1)C(=O)N[C@@H](CC(C)C)B(O)O [E.5.22, Boronic acid, [(1R)-1-[[(2S)-3-(nicotinoylamino)-2-(decanoylamino)-1-oxopropyl]amino]-3-methylbutyl]] | 136 to 141 | < 10 | < 200 | –
7 | CCCCc1ccc(C(=O)N[C@@H](CNC(=O)c2ccc(C)cc2)C(=O)N[C@@H](CC(C)C)B2O[C@@H]3C[C@@H]4C[C@@H](C4(C)C)[C@]3(C)O2)cc1 [D.24.6, 4-butylbenzamide, N-[(1S)-1-[[[(1R)-1-[(3aS,aS,6S,7aR)-hexahydro-3a,5,5-trimethyl-4,6-methano-1,3,2-benzodioxaborol-2-yl-]-3-methylbutyl]amino]carbonyl]-2-[(4-methylphenyl)carbonylamino]ethyl]-] | 150 to 152 | < 10 | < 200 | –
8 | CCCCCCCCCCCCC(=O)N[C@H](C(=O)N[C@@H](CC(C)C)B(O)O)[C@@H](C)O [E.3.3, Boronic acid, [(1R)-1-[[(2S,3R)-3-hydroxy-2-[(tridecanoyl)amino]-1-oxobutyl]amino]-3-methylbutyl]] | 97 to 116 | < 10 | < 200 | –
9 | CC(C)C[C@H](NC(=O)[C@H](CNC(=O)c1ccc(-c2ccccc2)cc1)NC(=O)c1ccc(Oc2ccccc2)cc1)B(O)O [E.5.34, Boronic acid, [(1R)-1-[[(2S)-3-(4-phenylbenzamide]-2-[(4-phenoxybenzoyl)amino]-1-oxopropyl]amino]-3-methylbutyl]] | 158 to 160 | < 10 | < 200 | –
10 | CCCCc1ccc(C(=O)N[C@@H](CNC(=O)OCc2ccccc2)C(=O)N[C@@H](CC(C)C)B2O[C@@H]3C[C@@H]4C[C@@H](C4(C)C)[C@]3(C)O2)cc1 [D.16.6] | 95 to 100 | < 10 | < 200 | –
11 | CCCCc1ccc(C(=O)N[C@@H](CNC(=O)c2ccc(N3CCOCC3)nc2)C(=O)N[C@@H](CC(C)C)B(O)O)cc1 [E.5.28, Boronic acid, [(1R)-1-[[(2S)-3-(6-morpholinonicotinamide]-2-[(4-butylbenzoyl)amino]-1-oxopropyl]amino]-3-methylbutyl]] | 178 to 180 | < 10 | < 200 | –
12 | CCCCc1ccc(C(=O)N[C@@H](CNC(=O)c2ccc(S(N)(=O)=O)cc2)C(=O)N[C@@H](CC(C)C)B2O[C@@H]3C[C@@H]4C[C@@H](C4(C)C)[C@]3(C)O2)cc1 [D.24.16] | 145 to 147 | < 10 | < 200 | –
13 | Cc1cc(C(=O)NC[C@H](NC(=O)c2ccc(Oc3ccccc3)cc2)C(=O)N[C@@H](CC(C)C)B(O)O)n(C)n1 [E.5.31] | 145 to 148 | < 10 | < 200 | –
14 | CC(C)C[C@H](NC(=O)[C@@H](NC(=O)c1ccc(-c2ccccc2)cc1)[C@@H](C)O)B(O)O [E.3.5, Boronic acid, [(1R)-1-[[(2S,3R)-3-hydroxy-2-[(4-phenylbenzoyl)amino]-1-oxobutyl]amino]-3-methylbutyl]] | 200 to 208 | < 10 | < 200 | –
15 | CCCCc1ccc(C(=O)N[C@@H](CNC(=O)c2ccc(S(N)(=O)=O)cc2)C(=O)N[C@@H](CC(C)C)B(O)O)cc1 [E.5.17, Boronic acid, [(1R)-1-[[(2S)-3-[4-sulfamylbenzoylamino]-2-[(4-butylbenzoyl)amino]-1-oxopropyl]amino]-3-methylbutyl]] | 156 to 159 | < 10 | 200 to 2000 | –
16 | CCCCc1ccc(C(=O)N[C@@H](CNC(=O)c2csc(-c3ccncc3)n2)C(=O)N[C@@H](CC(C)C)B(O)O)cc1 [E.5.37, Boronic acid, [(1R)-1-[[(2S)-3-(4-(2-(4-pyridyl)-1,3-thiazole-4-carbonylamino)]-2-[(4-butylbenzoyl)amino]-1-oxopropyl]amino]-3-methylbutyl]] | 155 to 158 | < 10 | < 200 | –
17 | CCCCc1ccc(C(=O)N[C@@H](CNS(C)(=O)=O)C(=O)N[C@@H](CC(C)C)B(O)O)cc1 [E.5.3, Boronic acid, [(1R)-1-[[(2S)-3-(methanesulfamido)-2-[(4-butyl)-benzoylamino]-1-oxopropyl]amino]-3-methylbutyl]] | 120 to 123 | < 100 | 200 to 2000 | –
18 | CCCCc1ccc(C(=O)N[C@@H](CNC(=O)C#Cc2ccccc2)C(=O)N[C@@H](CC(C)C)B(O)O)cc1 [E.5.35] | 138 to 140 | < 10 | < 200 | –
19 | CCCCc1ccc(C(=O)N[C@@H](CNS(C)(=O)=O)C(=O)N[C@@H](CC(C)C)B2O[C@@H]3C[C@@H]4C[C@@H](C4(C)C)[C@]3(C)O2)cc1 [D.24.4, 4-butylbenzamide, N-[(1S)-1-[[[(1R)-1-[(3aS,aS,6S,7aR)-hexahydro-3a,5,5-trimethyl-4,6-methano-1,3,2-benzodioxaborol-2-yl-]-3-methylbulyl]amino]carbonyl]-2-(methanesulfonamido)ethyl]-] | 53 to 55 | < 10 | < 200 | –
20 | CCCCc1ccc(C(=O)N[C@@H](CNC(=O)c2cccn2C)C(=O)N[C@@H](CC(C)C)B2O[C@@H]3C[C@@H]4C[C@@H](C4(C)C)[C@]3(C)O2)cc1 [D.24.13] | 88 to 92 | – | – | –
21 | CCCCc1ccc(C(=O)N[C@@H](CNC(=O)Cc2ccc(OC)c(OC)c2)C(=O)N[C@@H](CC(C)C)B(O)O)cc1 [E.5.15, Boronic acid, [(1R)-1-[[(2S)-3-[(3,4-dimethoxyphenyl)acetylamino]-2-[(4-butylbenzoylamino)]-1-oxopropyl]amino]-3-methylbutyl]] | 150 to 152 | – | – | –
22 | CC(C)C[C@H](NC(=O)[C@H](CNS(=O)(=O)c1ccc(F)cc1)NC(=O)c1ccc(Oc2ccccc2)cc1)B1O[C@@H]2C[C@@H]3C[C@@H](C3(C)C)[C@]2(C)O1 [D.24.29, 4-phenoxybenzamide, N-[(1S)-1-[[[(1R)-1-[(3aS,4S,6S,7aR)-hexahydro-3a,5,5-trimethyl-4,6-methano-1,3,2-benzodioxaborol-2-yl]-3-methylbutyl]amino]carbonyl]-2-[4-fluoro-benzenesulfonammide]ethyl]-] | 90 to 93 | – | – | –
23 | CCCCc1ccc(C(=O)N[C@@H](CNC(=O)c2ccno2)C(=O)N[C@@H](CC(C)C)B2O[C@@H]3C[C@@H]4C[C@@H](C4(C)C)[C@]3(C)O2)cc1 [D.24.21, 4-butylbenzamide, N-[(1S)-1-[[[(1R)-1-[(3aS,aS,6S,7aR)-hexahydro-3a,5,5-trimethyl-4,6-methano-1,3,2-benzodioxaborol-2-yl-]-3-methylbutyl]amino]carbonyl]-2-[(1-isoxazol-5-yl)-carbonylamino]ethyl]-] | 128 to 130 | – | – | –
